The assay concerns Triton-induced hyperlipidemic rat model. The experiment in a line: Antidyslipidaemic activity in Triton-induced hyperlipidemic rat model. It is filed as in vivo. The note with it: summary of Tables 1-2. The method, then: Male charles foster rats weighing around 200 to 225 g were divided into control, dyslipidemic and dyslipidemic plus drug treated groups containing six animals in each group. Dyslipidemia was induced by administration of triton WR-1339 (200 mg/kg intraperitoneally). All animals were maintained on a special pellet diet and water ad libitum. Test compounds and standard drug (Gemfibrozil) were macerated in 0.2% aqueous gum acacia. The fine suspension of test compounds and standard drug were fed orally to the respective groups at the dose of 100 mg/kg simultaneously with triton WR-1339 in drug treated group. The animals of control group received the same amount of gum acacia by similar route of administration. […]
Total plasma cholesterol was estimated using the kit and instructions as provided by the manufacturer Roche Diagnostics. […] The hydrogen peroxide combines with hydroxybenzoic acid (HBA) and 4-aminoantipyrine (4-AAA) in the presence of peroxidase (POD) to form a red chromophore (quinoneimine) which is quantitated at 500-505 nm. […]
Total plasma triglycerides were estimated using the kit and instructions as provided by the manufacture i.e. Roche Diagnostics. […] In the presence of peroxidase, hydrogen peroxide oxidatively couples with 4-aminoantipyrine and 4-chlorophenol to produce red chromophore quinonimine which is quantitated at 500-505 nm. […]

Regarding `CCCCO/N=C(/C)C1=CC[C@H]2[C@@H]3CC=C4C[C@@H](O)CC[C@]4(C)[C@H]3CC[C@]12C` [Compound 10a, 3β-Hydroxy-pregna-5,16-dien-20-one-O-n-butyl-oxime], the “antidyslipidemic / antidiabetic activity, summary in words” value was “mainly antidyslipidemic activity”.
With `C/C(=N/OCc1ccccc1)C1=CC[C@H]2[C@@H]3CC=C4C[C@@H](O)CC[C@]4(C)[C@H]3CC[C@]12C` [Compound 10b, 3β-Hydroxy-pregna-5,16-dien-20-one-O-benzyl-oxime], the “antidyslipidemic / antidiabetic activity, summary in words” value is given as “mainly antidyslipidemic activity”.

For the origin of these results see patent US20160009752A1, “[…]-OXIMINO-AMINOALKYLETHERS AND PROCESS FOR PREPARATION THEREOF, USEFUL AS ANTIDIABETIC AND […] AGENTS” (COUNCIL OF SCIENTIFIC & INDUSTRIAL RESEARCH, priority 2013, published 2016).
